# Non-standard residues stand in square brackets, D forms with d. Residues, ends and D or L forms follow the SMILES beside them. Cha = N[C@@H](CC1CCCCC1)C(=O)O
# Tests used:
# [1] = Viscosity of peptide solution before and after gelation (rheometer, flow experiment); assay type: physicochemical
# Description: The viscosity of the peptide solution before and after gelation is determined using the same rheometer, 25 mm parallel plate geometry, and a gap of 0.5 mm at 25° C. For the peptide solution, 250 μl of 13 mg/mL peptide solution is dropped on the Peltier plate and measured. For peptide gel samples, the peptide solution and 10×PBS buffer are mixed with the ratio of 1:10 on the Peltier plate and directly measured. The flow experiment is set up by starting the shear rate from 0.1 to 1500 s-1 for a 200-seconds duration. The value of the shear rate that we choose for our printing system is calculated using the equation below: 51
# [formula] • γ: shear rate (s−1); Q: flow rate (95 μL/s); d: diameter of needle (0.514 mm).
# [2] = test system: human dermal fibroblasts (hDF); assay type: cell-based
# Description: hDF is used in bioprinting experiments. Each cell type is cultured in its complete growth media, as described before, and cells at passages 4-8 are used in printing experiments. For bioprinting, hDF is mixed with PBS at a final concentration of 5×10^6 and 8×10^6 cells/ml, respectively, and loaded into the microfluidic tubing of the robotic arm bioprinter. In the printing process, the flow rates are 10 μl/min, 55 μl/min, and 8 μl/min for cells, peptide solution, and 5×PBS, respectively. Different cell-laden structures are printed including cuboids with 10 mm edges and 2.6 mm height, and cylinders with 10 mm diameter, and a height of 10 mm. After printing, the printed cell-laden constructs are placed in the CO2 incubator for 5 min before the addition of complete growth media. The printed cell-laden constructs are placed in standard conditions (37° C., 5% CO2, and 95% relative humidity), and the media are changed every three days.
# LIVE/DEAD® Cell Viability/Cytotoxicity Kit (ThermoFisher®, USA) is used to assess the viability of cells within the 3D printed constructs. The same protocol, as described earlier, is followed except for increasing the incubation time to 1 hour. The viability of cells is assessed immediately after printing, within 1 hour, designated as day 0 and at days 3, 7, 17 and 24 post-printing. For each time point, two cell-laden constructs are analyzed, and images are taken from different areas of the construct, including the center, edges, top, and bottom. Stained printed cell-laden constructs are imaged using an inverted laser scanning confocal microscope (Zeiss™ LSM 880 Inverted Confocal Microscope, Germany). The number of live and dead cells are counted using imageJ software, and the percentage of cell viability is calculated as the average ratio of live to total cells.
# [3] = Viscoelastic characterization: mechanical stiffness of peptide hydrogels (rheometer); assay type: physicochemical
# Description: The viscoelastic characteristics of peptide hydrogels, including the mechanical stiffness and viscosity, are analyzed using TA Ares-G2 Rheometer equipped with advanced Peltier system (APS). The mechanical stiffness of the peptide gels is measured using an 8 mm parallel plate with a gap of 1.8 mm, between the upper and lower plates, and at 22° C. The hydrogels are prepared, one day before the measurement, by mixing 135 μl of peptide solution, and 15 μl of 10×PBS inside a 9 mm internal diameter Sigmacote® coated glass casting ring. The rings are then kept inside Petri dishes at room temperature with water surrounding and tightly sealed to avoid dehydration. For each peptide, six replicates are prepared to control the accuracy of the measurements. The stiffness is analyzed through three successive tests, which are time-sweep, frequency-sweep, and amplitude-sweep. Time-sweep is first performed for 5 minutes with angular frequency and a strain of 1 rad/s and 0.1%, respectively. A frequency sweep is subsequently performed on the sample for a range of angular frequency of 0.1-100 rad/s with the same strain of 0.1%. The tests are completed with the amplitude sweep by applying a gradual increase of strain from 0.01% to 100% at 1 rad/s angular frequency.
# [4] = Peptide gelation studies (vial inversion method); assay type: physicochemical; conditions: for gelation time: 1×PBS buffer; for minimum gelation concentration: as used for 3D cell culture
# Description: The peptide powder is dissolved in 0.90 mL of Milli-Q® water and vortexed until a clear and homogeneous solution is observed. Then 0.10 mL of 10×PBS buffer (w/o Ca^2+ and Mg^2+) is added to the peptide solution. The glass vial is kept undisturbed, and the hydrogel formation is observed using the vial inversion method. The time and minimum concentration at which each peptide has formed a hydrogel are noted.
# [5] = gel, 13 mg/ml, shear rate 29.7 s^−1
Compound,"Viscosity [1, 5] [Pa · s]","Viscosity ([1]; solution, 13 mg/mL) [Pa · s]",cell viability in the center versus the edge of the filled cube structure [2],Loss Modulus (G′) ([3]; 1 mg/mL hydrogel) [kPa],Storage Modulus (G′) ([3]; 1 mg/mL hydrogel) [kPa],tan δ (G″/G′) ([3]; 1 mg/mL hydrogel),Loss Modulus (G′) ([3]; 2 mg/mL hydrogel) [kPa],Storage Modulus (G′) ([3]; 2 mg/mL hydrogel) [kPa],tan δ (G″/G′) ([3]; 2 mg/mL hydrogel),Loss Modulus (G′) ([3]; 5 mg/mL hydrogel) [kPa],Storage Modulus (G′) ([3]; 5 mg/mL hydrogel) [kPa],tan δ (G″/G′) ([3]; 5 mg/mL hydrogel),Loss Modulus (G′) ([3]; 8 mg/mL hydrogel) [kPa],Storage Modulus (G′) ([3]; 8 mg/mL hydrogel) [kPa],gelation time ([4]; 1 mg/ml),gelation time ([4]; 10 mg/ml),gelation time ([4]; 2 mg/ml) [min],gelation time ([4]; 3 mg/ml) [min],gelation time ([4]; 5 mg/ml) [min],gelation time ([4]; 20 mg/ml) [min],other results
"CC[C@H](C)[C@H](NC(C)=O)C(=O)N[C@H](C(=O)N[C@@H](Cc1ccccc1)C(=O)N[C@@H](CCCCN)C(N)=O)[C@@H](C)CC [IIFK, Ac-Ile-Ile-Phe-Lys-NH2] (Ac-IIFK-NH2)",0.56,0.09,no difference,0.13 ± 0.04,1.25 ± 0.86,0.10,1.31 ± 0.12,14.45 ± 1.37,0.09,2.39 ± 0.11,27.26 ± 1.30,0.09,5.00 ± 0.31,49.74 ± 5.02,less than 2.5 h,less than 3 min,–,–,–,–,tan δ (G″/G′) ([3]; 8 mg/mL hydrogel): 0.10; Loss Modulus (G′) ([3]; 10 mg/mL hydrogel): 9.04 ± 0.56 kPa; Storage Modulus (G′) ([3]; 10 mg/mL hydrogel): 94.18 ± 7.12 kPa; tan δ (G″/G′) ([3]; 10 mg/mL hydrogel): 0.10; Loss Modulus (G′) ([3]; 13 mg/mL hydrogel): 8.90 ± 0.36 kPa; Storage Modulus (G′) ([3]; 13 mg/mL hydrogel): 108.21 ± 5.02 kPa; tan δ (G″/G′) ([3]; 13 mg/mL hydrogel): 0.08; minimum gelation concentration [4]: 2 mg/mL
"CC[C@H](C)[C@H](NC(C)=O)C(=O)N[C@H](C(=O)N[C@@H](CC1CCCCC1)C(=O)N[C@@H](CCCCN)C(N)=O)[C@@H](C)CC [IIZK, Ac-Ile-Ile-Cha-Lys-NH2] (Ac-II[Cha]K-NH2)",0.47,0.03,slightly lower,0.88 ± 0.04,6.52 ± 0.18,0.13,2.02 ± 0.09,16.82 ± 0.72,0.12,7.08 ± 0.59,64.74 ± 4.89,0.11,10.91 ± 0.44,89.40 ± 1.86,less than 7 min,–,–,–,–,–,tan δ (G″/G′) ([3]; 8 mg/mL hydrogel): 0.12; Loss Modulus (G′) ([3]; 10 mg/mL hydrogel): 15.54 ± 0.68 kPa; Storage Modulus (G′) ([3]; 10 mg/mL hydrogel): 134.04 ± 5.99 kPa; tan δ (G″/G′) ([3]; 10 mg/mL hydrogel): 0.12; Loss Modulus (G′) ([3]; 13 mg/mL hydrogel): 37.76 ± 2.38 kPa; Storage Modulus (G′) ([3]; 13 mg/mL hydrogel): 271.34 ± 35.09 kPa; tan δ (G″/G′) ([3]; 13 mg/mL hydrogel): 0.14; minimum gelation concentration [4]: 1 mg/mL
"CC[C@H](C)[C@H](NC(C)=O)C(=O)N[C@@H](CC1CCCCC1)C(=O)N[C@@H](CC1CCCCC1)C(=O)N[C@@H](CCCCN)C(N)=O [IZZK, Ac-Ile-Cha-Cha-Lys-NH2] (Ac-I[Cha][Cha]K-NH2)",0.48,0.06,slightly lower,0.36 ± 0.08,3.71 ± 0.19,0.10,1.44 ± 0.07,15.53 ± 0.74,0.09,11.60 ± 0.51,85.87 ± 6.50,0.14,29.70 ± 1.54,193.09 ± 10.13,–,–,–,–,–,–,tan δ (G″/G′) ([3]; 8 mg/mL hydrogel): 0.15; Loss Modulus (G′) ([3]; 10 mg/mL hydrogel): 39.71 ± 1.50 kPa; Storage Modulus (G′) ([3]; 10 mg/mL hydrogel): 222.13 ± 8.16 kPa; tan δ (G″/G′) ([3]; 10 mg/mL hydrogel): 0.18; Loss Modulus (G′) ([3]; 13 mg/mL hydrogel): 54.56 ± 1.46 kPa; Storage Modulus (G′) ([3]; 13 mg/mL hydrogel): 314.91 ± 10.10 kPa; tan δ (G″/G′) ([3]; 13 mg/mL hydrogel): 0.17
"FFFK: ultrashort amphiphilic peptide, one-letter amino acid sequence (Ac-FFFK-NH2)",–,–,–,–,–,–,–,–,–,–,–,–,–,–,–,<2 min,<15,<10,<5,–,gelation time ([4]; 4 mg/ml): <5 min; gelation time (in words) ([4]; 20 mg/ml): simultaneously
"FFIK: ultrashort amphiphilic peptide, one-letter amino acid sequence (Ac-FFIK-NH2)",–,–,–,–,–,–,–,–,–,–,–,–,–,–,–,<5 min,<10,<10,<5,<5,"gelation (in words) ([4]; 1 mg/ml, in 1 h): Does not gel"
"FIIK: ultrashort amphiphilic peptide, one-letter amino acid sequence (Ac-FIIK-NH2)",–,–,–,–,–,–,–,–,–,–,–,–,–,–,<15 min,<5 min,<5,<10,<10,<5,gel quality (in words) ([4]; 1 mg/ml): Soft gel
"IFFK: ultrashort amphiphilic peptide, one-letter amino acid sequence (Ac-IFFK-NH2)",–,–,–,–,–,–,–,–,–,–,–,–,–,–,>60 min,<5 min,<10,<5,<5,<5,gel quality (in words) ([4]; 1 mg/ml): Slightly; gelation time ([4]; 4 mg/ml): <5 min
"ZIIK: ultrashort amphiphilic peptide, one-letter sequence; Z is cyclohexylalanine (Ac-[Cha]IIK-NH2; SMILES CC[C@H](C)[C@H](NC(=O)[C@H](CC1CCCCC1)NC(C)=O)C(=O)N[C@H](C(=O)N[C@@H](CCCCN)C(N)=O)[C@@H](C)CC)",–,–,–,–,–,–,–,–,–,–,–,–,–,–,<60 min,<5 min,<10,–,<10,<5,gel quality (in words) ([4]; 1 mg/ml): Very soft gel

# Reference: patent US12590121B2, “Peptide compound with repetitive sequences” (KING ABDULLAH UNIVERSITY OF SCIENCE AND TECHNOLOGY, priority 2020, dated 2026)
